Results as given in patent US12629419B2, “Prevention or mitigation of T-cell engaging agent-related adverse effects” (Hoffmann-La Roche Inc., priority 2020, dated 2026).
Entries after “also recorded” stand apart in the source; their conditions may differ.

Key:
[1] = tested on: cytokine release induced by CAR-T cells; assay: cytokine release induced by PGLALA and CD16 CAR-T cells (Luminex); assay type: cell-based; conditions: 100 nM inhibitor
Experimental: (§1) FIG. 62. Effect of 100 nM ruxolitinib and 100 nM sirolimus on GM-CSF (A), IFN-γ (B), IL-2 (C) and TNF-α (D) induced by PGLALA CAR-T cells. PGLALA CAR-T cells were co-cultured together with CTV labelled WSU tumor cells (E:T=10:1) and escalating concentrations of PGLALA-Fc anti-CD20 IgG in the presence and absence of 100 nM ruxolitinib (ruxo) or 100 nM sirolimus (siro) respectively. At 24 hours, the supernatants from technical replicates were pooled and cytokines were analyzed by Luminex. Mean of n=2 donors.
as §1, with “63.” for “62.”, “CD16” for “PGLALA”, “wild-type Fc” for “PGLALA-Fc”, “(siro).” for “(siro) respectively.”
(§2) To assess the impact of JAK inhibitor ruxolitinib and mTOR inhibitor sirolimus on cytokine release induced by CAR-T cells, we conducted a killing assay where PGLALA and CD16 universal CAR-T cells (CAR-T cells with a CAR comprising an anti-P329G-Fc scFv (binding to PGLALA Fc) or CD16 (binding to wild-type Fc)) were co-cultured with CTV WSU tumor cells in the presence of escalating concentrations of PGLALA Fc and wild-type Fc anti-CD20 IgG in medium supplemented with 100 nM ruxolitinib or 100 nM sirolimus. To verify whether ruxolitinib and sirolimus interfered with tumor cell killing by CAR-T cells, we measured killing of CTV WSU tumor cells by flow cytometry at 24 hours.

[2] = tested on: lymphoma patient derived xenograft (PDX); assay: CD19-TCB anti-tumor activity in lymphoma PDX bearing humanized NSG mice; assay type: in vivo; conditions: sirolimus 5 mg/kg, p.o.; for anti-tumor activity in combination with CD19-TCB (0.5 mg/kg): ruxolitinib 30 mg/kg, dasatinib 20 mg/kg, dexamethasone, transient use
Experimental: (§3) FIG. 89. In vivo experiment timelines and dosing schedule. Humanized NSG mice were engrafted with a lymphoma PDX (5 million cells, s.c.). […] The kinase inhibitors were given twice on the day of the first CD19-TCB administration (D16, once 1 hour before CD19-TCB, and once afterwards), and then once (sirolimus) or twice (dasatinib, ruxolitinib) on the two following days (D17 and D18), as well as once 1 hour before each subsequent CD19-TCB administration.
(§4) First, we verified if the PDX cells were killed upon treatment with CD19-TCB in vitro, using a killing assay. The lymphoma PDX cells were co-cultured together with PBMCs (E:T=10:1) in the presence of CD19-TCB. […] Moreover, they were also administered one hour before each subsequent treatment to prevent residual cytokine secretion (FIG. 89).

[3] = tested on: CD20-TCB-induced cytokine release; assay: CD20-TCB-induced cytokine release in non-tumor bearing humanized NSG mice (serum, Luminex); assay type: in vivo; conditions: serum 4 hours and 24 hours after CD20-TCB; ruxolitinib 30 to 60 mg/kg
Experimental: FIG. 95. In vivo experiment timelines and dosing schedule.
Different doses of mTOR, JAK and Src kinase inhibitors were tested to determine the optimal dose that reduces CD20-TCB-induced cytokine release while minimally interfering with B cell depletion. […] The doses of 30 and 60 mg/kg were tested for ruxolitinib and the doses of 10 and 50 mg/kg were tested for dasatinib. To reproduce the clinical route of administration, the different kinase inhibitors were given orally (p.o.) once or twice per day as depicted in FIG. 95. Mice were bled 4 hours and 24 hours after the treatment with CD20-TCB (FIG. 95) to collect serum for cytokine level measurements by Luminex. Additionally, blood was collected 48 hours and 72 hours (termination) post treatment with CD20-TCB to measure the percentage of CD19+ B cells among human CD45+ cells by flow cytometry (FIG. 95).

[4] = tested on: CD19-TCB-induced cytokine release; assay: CD19-TCB-induced cytokine release in humanized NSG mice (serum, Luminex); assay type: in vivo; conditions: serum 6 hrs post treatment with CD19-TCB
Excerpt: FIG. 81. In vivo experiment timelines and dosing schedule.
To best reproduce the pharmacodynamic profile of ruxolitinib, dasatinib and sirolimus in the clinic and to verify whether the resulting exposure would be sufficient to prevent CD19-TCB-induced cytokine release, dasatinib and ruxolitinib were given per os twice per day, and sirolimus was given per os twice per day on day 1 and then once per day.

[5] = tested on: CD19-TCB-mediated cytokine release; assay: cytokine release upon first CD19-TCB infusion in lymphoma PDX bearing mice (serum); assay type: in vivo; conditions: for effects on cytokine levels: compared with obinutuzumab pre-treatment
Experimental: as §3
FIG. 94. […] Cytokine levels were measured by Luminex in serum collected 6 hrs post first infusion with CD19-TCB. Mean of n=6-8 mice+SD with *p≤0.05, **p<0.01, ***p<0.001 by 1 way ANOVA (Kruskal Wallis test).
as §4

CTV WSU tumor cells = assay: tumor cell killing by PGLALA and CD16 universal CAR-T cells; assay type: cell-based; conditions: 100 nM inhibitor, 24 hours; for tumor cell killing by PGLALA CAR-T cells: PGLALA Fc anti-CD20 IgG; for tumor cell killing by CD16 CAR-T cells: wild-type Fc anti-CD20 IgG
Experimental: FIG. 61. CTV labelled WSU tumor cell killing by PGLALA CAR-T cells (A) and CD16 CAR-T cells (B) in the presence and absence of 100 nM ruxolitinib or 100 nM sirolimus. PGLALA CAR-T cells and CD16 CAR-T cells were co-cultured together with CTV labelled WSU tumor cells (E:T=10:1) and escalating concentrations of anti-CD20 IgG with either PGLALA-Fc (for PGLALA CAR-T cells) or wild-type Fc (for CD16 CAR-T cells) in the presence and absence of 100 nM ruxolitinib (ruxo) or 100 nM sirolimus (siro). At 24 hours, the technical replicates were pooled and stained with a LIVE/DEAD™ Near-IR dye to allow exclusion of dead CTV labelled WSU DLCL2 tumor cells by flow cytometry. 1 representative donor.
as §2

[6] = serum 6 hrs post first infusion with CD19-TCB, ruxolitinib 30 mg/kg

| Structure (SMILES) | release of IFN-γ, TNF-α and GM-CSF ([1]; CD16 CAR-T cells) | release of IFN-γ, TNF-α and GM-CSF ([1]; PGLALA CAR-T cells) | anti-tumor activity in combination with CD19-TCB (0.5 mg/kg) [2] | CD20-TCB-mediated cytokine release other than IL-2 and GM-CSF [3] | CD19-TCB-induced IFN-γ and IL-6 release [4] | CD19-TCB-induced IL-2 and TNF-α [4] | effects on cytokine levels [5] | IFN-γ, TNF-α and IL-2 release [5, 6] | IL-6 release [5, 6] | tumor cell killing by PGLALA CAR-T cells (CTV WSU tumor cells) | tumor cell killing by CD16 CAR-T cells (CTV WSU tumor cells) | release of IL-2 ([1]; CD16 CAR-T cells) | release of IL-2 ([1]; PGLALA CAR-T cells) | tumor growth, given as a single agent ([2]; dexamethasone 1, 0.5, 0.25 mg/kg) | IL-2, IFN-γ, TNF-α and IL-6 release upon the first infusion ([5]; serum 6 hrs post first infusion with CD19-TCB) |
| --- | --- | --- | --- | --- | --- | --- | --- | --- | --- | --- | --- | --- | --- | --- | --- |
| N#CC[C@H](C1CCCC1)n1cc(-c2ncnc3[nH]ccc23)cn1 [ruxolitinib, Ruxolitinib] | reduced | reduced | minimally interfered; also recorded: did not impair | durably reduced | comparable to the pre-treatement with obinutuzumab | slightly weaker | stronger than the effect of obinutuzumab pre-treatment | to a lower extent | decreased | neither sirolimus nor ruxolitinib prevented | neither sirolimus nor ruxolitinib prevented |  |  |  |  |
| CO[C@H]1C[C@@H]2CC[C@@H](C)[C@@](O)(O2)C(=O)C(=O)N2CCCC[C@H]2C(=O)O[C@H]([C@H](C)C[C@@H]2CC[C@@H](O)[C@H](OC)C2)CC(=O)[C@H](C)/C=C(\C)[C@@H](O)[C@@H](OC)C(=O)[C@H](C)C[C@H](C)/C=C/C=C/C=C/1C [sirolimus, Sirolimus] | strongly reduced | strongly reduced | comparable to CD19-TCB alone; also recorded: did not impair |  | comparable to the pre-treatement with obinutuzumab | comparable to the pre-treatement with Gazyva® | stronger than the effect of obinutuzumab pre-treatment |  |  | neither sirolimus nor ruxolitinib prevented | neither sirolimus nor ruxolitinib prevented | strongly reduced | strongly reduced | reduction in tumor growth, yet not significant | suppressed |
